PMC4840272 (Neoplasia (New York, N.Y.), 2016)

Columns and labels:
CL1-5 cells = test: alamarBlue in vitro cytotoxicity assay; assay type: cell-based, human; conditions: Homo sapiens, CL1-5, 72 h
CL141T cells = test: cells; assay type: cell-based, human; conditions: Homo sapiens, 72 h
H1975 cells = test: cells; assay type: cell-based, human; conditions: Homo sapiens, NCI-H1975, 72 h
CL100 cells = test: cells; assay type: cell-based, human; conditions: Homo sapiens, 72 h
H1650 cells = test: cells; assay type: cell-based, human; conditions: Homo sapiens, NCI-H1650, 72 h
A549 cells = test: cells; assay type: cell-based, human; conditions: Homo sapiens, A549, 72 h
H1299 cells = test: cells; assay type: cell-based, human; conditions: Homo sapiens, NCI-H1299, 72 h
CL97 cells = test: cells; assay type: cell-based, human; conditions: Homo sapiens, CL97, 72 h
PC9 cells = test: cells; assay type: cell-based, human; conditions: Homo sapiens, PC-9, 72 h
H460 cells = test: cells; assay type: cell-based, human; conditions: Homo sapiens, NCI-H460, 72 h
PC9/gef B4 cells = test: cells; assay type: cell-based, human
H1650-Luc cells = test: orthotopic lung tumor model, IVIS; assay type: in vivo, nude mice; conditions: BO-1978 40 mg/kg, gefitinib 10 mg/kg, daily for 5 consecutive days
PC9/gef B4 xenograft = PC9/gef B4 xenograft in nude mice; assay type: in vivo; conditions: i.v., BO-1978 40 mg/kg, gefitinib 10 mg/kg, daily for 5 consecutive days
H1975 xenograft = H1975 xenograft in nude mice; assay type: in vivo; conditions: i.v., BO-1978 40 mg/kg, gefitinib 10 mg/kg, daily for 5 consecutive days
PC9 xenograft = PC9 xenograft in nude mice; assay type: in vivo; conditions: i.v., BO-1978 40 mg/kg, gefitinib 10 mg/kg, daily for 5 consecutive days
H1650 xenograft = H1650 xenograft in nude mice; assay type: in vivo; conditions: i.v., BO-1978 40 mg/kg, gefitinib 10 mg/kg, daily for 5 consecutive days
CCRF-CEM = test: cytotoxicity in multiple drug-resistant and cisplatin-resistant cells; assay type: cell-based; conditions: Homo sapiens
CCRF/VBL = test: as above; assay type: cell-based
KB = test: as above; assay type: cell-based; conditions: Homo sapiens
KB/vin10 = test: as above; assay type: cell-based

`COc1cc([C@@H]2c3cc4c(cc3[C@@H](O[C@@H]3O[C@@H]5CO[C@@H](C)O[C@H]5[C@H](O)[C@H]3O)[C@H]3COC(=O)[C@H]23)OCO4)cc(OC)c1O` [Etoposide] gave an IC50 (CL1-5 cells) of 12.6 ± 3.93 µM, an IC50 (CL141T cells) of 23.3 ± 3.34 µM and an IC50 (H1975 cells) of 14.1 ± 2.9 µM. It also gave an IC50 (CL100 cells) of 4.3 ± 3.87 µM, an IC50 (H1650 cells) of 32.5 ± 17.6 µM and an IC50 (A549 cells) of 22.4 ± 14.4 µM. The IC50 (H1299 cells) was 15.6 ± 7.45 µM, the IC50 (CL97 cells) was 24.4 ± 17.4 µM and the IC50 (PC9 cells) was 19.3 ± 6.28 µM. The IC50 (H460 cells) was 7.31 ± 2.56 µM, the IC50 (PC9/gef B4 cells; Homo sapiens, 72 h) was 36.7 ± 20.5 µM and the “resistance factor of PC9/gef B4 to PC9 cells” value (PC9/gef B4 cells; IC50 ratio, number in brackets) was 1.90.

In the case of `COc1cc2ncnc(Nc3ccc(F)c(Cl)c3)c2cc1OCCCN1CCOCC1` [Gefitinib, reference compound], the “orthotopic growth of H1650-Luc cells” value (H1650-Luc cells) is reported as “resistant to gefitinib treatment alone”, the “suppression of xenograft tumor growth” value (PC9/gef B4 xenograft) is reported as roughly 49% and the “suppression of xenograft tumor growth” value (H1975 xenograft) is reported as roughly 1%. The “suppression of xenograft tumor growth” value (PC9 xenograft) was “approximately 36%” and the “suppression of xenograft tumor growth” value (H1650 xenograft) was roughly 51%.

With `CCc1c2c(nc3ccc(OC(=O)N4CCC(N5CCCCC5)CC4)cc13)-c1cc3c(c(=O)n1C2)COC(=O)[C@]3(O)CC` [Irinotecan] the IC50 (H1975 cells) was 36.8 ± 14.4 µM, the IC50 (H1650 cells) was 17.1 ± 4.2 µM and the IC50 (A549 cells) was 9.29 ± 3.31 µM. The IC50 (H1299 cells) was 24.5 ± 1.85 µM, the IC50 (PC9 cells) was 11.2 ± 1.97 µM and the IC50 (H460 cells) was 4.18 ± 1.29 µM.

Work on `CC[C@]1(O)C[C@H]2CN(CCc3c([nH]c4ccccc34)[C@@](C(=O)OC)(c3cc4c(cc3OC)N(C=O)[C@H]3[C@@](O)(C(=O)OC)[C@H](OC(C)=O)[C@]5(CC)C=CCN6CC[C@]43[C@@H]65)C2)C1` [Vincristine, reference compound] yielded an IC50 (CCRF-CEM) of 0.00223 ± 0.00019 µM, an IC50 (CCRF/VBL) of 2.13 ± 0.249 µM and a resistance factor (CCRF/VBL; CCRF/VBL vs CCRF-CEM) of 954.3 x. The IC50 (KB) was 0.00216 ± 0.00025 µM, the IC50 (KB/vin10; Homo sapiens, KB-VIN10) was 0.51 ± 0.17 µM and the resistance factor (KB/vin10; KB/vin10 vs KB) was 236.1 x.
